Where “and” joins values, the source holds several entries; their conditions need not be identical. Equal values may be shown once. Toxic doses and inconclusive results are not listed. Cut-off read from the data, not from the text of the source: active = T/C of 150% or more; inactive = T/C below 125%.
Tested on: L1210 leukemia ip in BDF1 mice, survival T/C
Experiment: NCI In Vivo Anticancer Drug Screen. Data for tumor model L1210 Leukemia (intraperitoneal) in B6D2F1 (BDF1) mice
Details: endpoint: mean survival time, higher = longer survival
Outline: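 Read-out is survival time, reported as the treated-group measurement over the vehicle-control measurement.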

[1] = dose: 100.0 mg/kg/injection, schedule: Q04DX003 (ip), vehicle: saline
[2] = dose: 200.0 mg/kg/injection, schedule: Q04DX003 (ip), vehicle: saline
[3] = dose: 100.0 mg/kg/injection, schedule: Q04DX003 (ip), vehicle: saline with Tween-80
[4] = dose: 200.0 mg/kg/injection, schedule: Q04DX003 (ip), vehicle: saline with Tween-80
[5] = dose: 400.0 mg/kg/injection, schedule: Q04DX003 (ip), vehicle: saline with Tween-80
[6] = dose: 100.0 mg/kg/injection, schedule: Q01DX001 (ip), vehicle: saline
[7] = dose: 100.0 mg/kg/injection, schedule: Q01DX009 (ip), vehicle: saline with Tween-80
[8] = dose: 200.0 mg/kg/injection, schedule: Q01DX009 (ip), vehicle: saline with Tween-80
[9] = dose: 400.0 mg/kg/injection, schedule: Q01DX009 (ip), vehicle: saline with Tween-80
[10] = dose: 100.0 mg/kg/injection, schedule: Q04DX002 (ip), vehicle: Klucel (hydroxypropylcellulose) (HPC)
[11] = dose: 25.0 mg/kg/injection, schedule: Q01DX001 (ip), vehicle: saline with Tween-80
[12] = dose: 50.0 mg/kg/injection, schedule: Q01DX001 (ip), vehicle: saline with Tween-80
[13] = dose: 200.0 mg/kg/injection, schedule: Q04DX002 (ip), vehicle: Klucel (hydroxypropylcellulose) (HPC)
[14] = dose: 400.0 mg/kg/injection, schedule: Q04DX002 (ip), vehicle: Klucel (hydroxypropylcellulose) (HPC)
[15] = dose: 50.0 mg/kg/injection, schedule: Q01DX001 (ip), vehicle: carboxymethylcellulose (CMC)
[16] = dose: 100.0 mg/kg/injection, schedule: Q01DX001 (ip), vehicle: carboxymethylcellulose (CMC)
[17] = dose: 200.0 mg/kg/injection, schedule: Q01DX001 (ip), vehicle: carboxymethylcellulose (CMC)
[18] = dose: 400.0 mg/kg/injection, schedule: Q01DX001 (ip), vehicle: carboxymethylcellulose (CMC)

Measured: T/C

CC1CN(c2ccccc2)NC1=O (stereo not drawn)
inactive: [1] 97 % of control | [2] 95 % of control | dose: 400.0 mg/kg/injection, schedule: Q04DX003 (ip), vehicle: saline 97 % of control

CC1(C)CC(=O)NN1C(=O)c1ccccc1
inactive: [3] 108 % of control | [4] 103 % of control | [5] 102 % of control

CC1(C)N=C(N)N=C(N)N1c1cccc(C(=O)O)c1
inactive: dose: 25.0 mg/kg/injection, schedule: Q01DX001 (ip), vehicle: saline 100 % of control | dose: 50.0 mg/kg/injection, schedule: Q01DX001 (ip), vehicle: saline 102 % of control | [6] 105 % of control

CCn1/c(=N\N=O)sc2ccccc21
inactive: dose: 100.0 mg/kg/injection, schedule: Q01DX001 (ip), vehicle: Klucel (hydroxypropylcellulose) (HPC) 96 % of control

Cc1nc(N)sc1CCCl
inactive: dose: 36.0 mg/kg/injection, schedule: Q01DX015 (ip), vehicle: carboxymethylcellulose (CMC) 100 % of control | dose: 54.0 mg/kg/injection, schedule: Q01DX015 (ip), vehicle: carboxymethylcellulose (CMC) 94 % of control

COc1ccccc1/C=C(\C(=O)O)c1cccc2ccccc12
inactive: dose: 100.0 mg/kg/injection, schedule: Q04DX003 (ip), vehicle: Klucel (hydroxypropylcellulose) (HPC) 93 % of control | dose: 200.0 mg/kg/injection, schedule: Q04DX003 (ip), vehicle: Klucel (hydroxypropylcellulose) (HPC) 100 % of control | dose: 400.0 mg/kg/injection, schedule: Q04DX003 (ip), vehicle: Klucel (hydroxypropylcellulose) (HPC) 98 % of control

O=C(NCc1cnccn1)c1ccc([N+](=O)[O-])cc1
inactive: [7] 98 % of control | [8] 104 % of control | [9] 98 % of control

COc1ccc(OC)c(-c2csc(=O)s2)c1
inactive: dose: 50.0 mg/kg/injection, schedule: Q04DX002 (ip), vehicle: Klucel (hydroxypropylcellulose) (HPC) 97 % of control | [10] 111 % of control

O=S(=O)(Nc1cc(Cl)ccc1Cl)c1ccc(Cl)cc1
inactive: [7] 92 % of control | [8] 102 % of control | [9] 92 % of control

CCc1ccc(-n2cnc3c(=O)[nH]c(N)nc32)cc1
inactive: [11] 86 % of control | [12] 88 % of control | dose: 100.0 mg/kg/injection, schedule: Q01DX001 (ip), vehicle: saline with Tween-80 91 % of control

CNC(=O)NC(=O)C(C)(C)Oc1ccc(Cl)cc1
inactive: [1] 97 % of control | [2] 94 % of control

Cc1c([N+](=O)[O-])cc(C(C)(C)C)c(OC(=O)Nc2cccc(Cl)c2)c1[N+](=O)[O-]
inactive: dose: 12.5 mg/kg/injection, schedule: Q01DX009 (ip), vehicle: Klucel (hydroxypropylcellulose) (HPC) 100 % of control | dose: 25.0 mg/kg/injection, schedule: Q01DX009 (ip), vehicle: Klucel (hydroxypropylcellulose) (HPC) 94 % of control | dose: 50.0 mg/kg/injection, schedule: Q01DX009 (ip), vehicle: Klucel (hydroxypropylcellulose) (HPC) 101 % of control

O=Cc1ccc(OCc2ccccc2)cc1
inactive: [10] 96 % of control | [13] 96 % of control | [14] 92 % of control

O=C(Nc1ccc(C2=NCCN2)cc1)c1cc(C(=O)Nc2ccc(C3=NCCN3)cc2)cc(C(=O)Nc2ccc(C3=NCCN3)cc2)c1
inactive: dose: 4.3 mg/kg/injection, schedule: Q01DX Z (ip), vehicle: saline 95 % of control | dose: 6.4 mg/kg/injection, schedule: Q01DX Z (ip), vehicle: saline 93 % of control | dose: 9.7 mg/kg/injection, schedule: Q01DX Z (ip), vehicle: saline 97 % of control and 92 % of control | dose: 15.0 mg/kg/injection, schedule: Q01DX Z (ip), vehicle: saline 92 % of control | dose: 22.0 mg/kg/injection, schedule: Q01DX Z (ip), vehicle: saline 88 % of control | dose: 33.0 mg/kg/injection, schedule: Q01DX Z (ip), vehicle: saline 97 % of control | dose: 111.0 mg/kg/injection, schedule: Q01DX Z (ip), vehicle: saline 93 % of control | dose: 166.0 mg/kg/injection, schedule: Q01DX Z (ip), vehicle: saline 90 % of control | dose: 250.0 mg/kg/injection, schedule: Q01DX Z (ip), vehicle: saline 87 % of control | dose: 375.0 mg/kg/injection, schedule: Q01DX Z (ip), vehicle: saline 88 % of control

Nc1ccc(C(=O)N/N=C/c2ccccc2[N+](=O)[O-])cc1
inactive: dose: 12.5 mg/kg/injection, schedule: Q01DX009 (ip), vehicle: other 91 % of control | dose: 25.0 mg/kg/injection, schedule: Q01DX009 (ip), vehicle: other 93 % of control

CN(C)c1ccc2c(c1)oc(=O)c1ccccc12
inactive: [15] 93 % of control | [16] 104 % of control | [17] 112 % of control | [18] 91 % of control

CO[As](OC)c1ccc(N=Nc2ccc(N(C)C)cc2)cc1
inactive: dose: 1.56 mg/kg/injection, schedule: Q04DX003 (ip), vehicle: Klucel (hydroxypropylcellulose) (HPC) 100 % of control | dose: 3.13 mg/kg/injection, schedule: Q04DX003 (ip), vehicle: Klucel (hydroxypropylcellulose) (HPC) 100 % of control | dose: 6.25 mg/kg/injection, schedule: Q04DX003 (ip), vehicle: Klucel (hydroxypropylcellulose) (HPC) 92 % of control

N#CCN(CC#N)CCCN(CC#N)CC#N
inactive: [11] 96 % of control | [12] 102 % of control | dose: 200.0 mg/kg/injection, schedule: Q01DX001 (ip), vehicle: saline with Tween-80 102 % of control and 90 % of control | dose: 400.0 mg/kg/injection, schedule: Q01DX001 (ip), vehicle: saline with Tween-80 93 % of control

Cc1cccc(Cl)c1OCC(=O)Nc1ccc(Cl)cc1
inactive: dose: 100.0 mg/kg/injection, schedule: Q04DX002 (ip), vehicle: saline with Tween-80 90 % of control | dose: 200.0 mg/kg/injection, schedule: Q04DX002 (ip), vehicle: saline with Tween-80 93 % of control | dose: 400.0 mg/kg/injection, schedule: Q04DX002 (ip), vehicle: saline with Tween-80 93 % of control

Nc1ccnn2nnnc12
inactive: [6] 97 % of control | dose: 200.0 mg/kg/injection, schedule: Q01DX001 (ip), vehicle: saline 91 % of control | dose: 400.0 mg/kg/injection, schedule: Q01DX001 (ip), vehicle: saline 97 % of control

NCCCCCCCCCCC(=O)O
inactive: [10] 115 % of control | [13] 95 % of control | [14] 101 % of control

CC(=O)NCC(=O)c1ccc(S(=O)(=O)c2ccccc2)cc1
inactive: [15] 104 % of control | [16] 98 % of control | [17] 96 % of control | [18] 98 % of control

NC(=S)N/N=C/c1cnccn1
inactive: dose: 13.0 mg/kg/injection, schedule: Q03HX032 (ip), vehicle: saline with Tween-80 98 % of control | dose: 20.0 mg/kg/injection, schedule: Q03HX032 (ip), vehicle: saline with Tween-80 101 % of control | dose: 29.0 mg/kg/injection, schedule: Q03HX032 (ip), vehicle: saline with Tween-80 113 % of control | dose: 44.0 mg/kg/injection, schedule: Q03HX032 (ip), vehicle: saline with Tween-80 115 % of control | [8] 86 % of control

COc1ccc(CCS(=O)(=O)N=[N+]=[N-])cc1
inactive: [3] 104 % of control | [4] 116 % of control | [5] 112 % of control
